Our source for the zone of inhibition and MIC values is ChEMBL document CHEMBL3044670, “Aromatic sulfonyl hydrazides and sulfonyl hydrazones: antimicrobial activity and physical properties” (2013).

Holding throughout (type): functional
The test system of test [1] is Pseudomonas fluorescens. Put plainly: Antibacterial activity against Pseudomonas fluorescens ATCC 49838 at 140 ug/disk after 18 to 24 hr by disk diffusion method. To be noted: read-out: DIZ. For orientation: A growth-free zone around the sample is the usual read-out of agar diffusion tests.
For test [2], the system named is Bacillus subtilis. Put plainly: Antibacterial activity against Bacillus subtilis ATCC 6633 at 140 ug/disk after 18 to 24 hr by disk diffusion method. The settings on record: read-out: DIZ.
Test [3] has as its system Klebsiella pneumoniae. In words: Antibacterial activity against Klebsiella pneumoniae ATCC 13883 at 140 ug/disk after 18 to 24 hr by disk diffusion method. To be noted: read-out: DIZ.
Test [4] has as its system Staphylococcus epidermidis. Put plainly: Antibacterial activity against Staphylococcus epidermidis ATCC 12228 at 140 ug/disk after 18 to 24 hr by disk diffusion method. To be noted: read-out: DIZ.
Test [5] relates to Enterococcus faecalis. In words: Antibacterial activity against Enterococcus faecalis ATCC 29212 after 18 to 24 hr by broth microdilution method. For orientation: Dilution methods test growth across graded concentrations, often in twofold steps.
The subject of test [6] is Klebsiella pneumoniae. In words: Antibacterial activity against Klebsiella pneumoniae ATCC 13883 after 18 to 24 hr by broth microdilution method.
Test [7] relates to Bacillus subtilis. Put plainly: Antibacterial activity against Bacillus subtilis ATCC 6633 after 18 to 24 hr by broth microdilution method.
For test [8], the system named is Enterococcus faecalis. In words: Antibacterial activity against Enterococcus faecalis ATCC 29212 at 140 ug/disk after 18 to 24 hr by disk diffusion method. To be noted: read-out: DIZ.
The subject of test [9] is Candida albicans. In words: Antifungal activity against Candida albicans ATCC 90028 at 140 ug/disk after 18 to 24 hr by disk diffusion method. The settings on record: read-out: DIZ.
For test [10], the system named is Pseudomonas aeruginosa. In words: Antibacterial activity against Pseudomonas aeruginosa ATCC 27853 at 140 ug/disk after 18 to 24 hr by disk diffusion method. To be noted: read-out: DIZ.
The subject of test [11] is Klebsiella aerogenes. In words: Antibacterial activity against Enterobacter aerogenes ATCC 13048 after 18 to 24 hr by broth microdilution method.
Test [12] concerns Escherichia coli. In words: Antibacterial activity against Escherichia coli ATCC 25922 at 140 ug/disk after 18 to 24 hr by disk diffusion method. To be noted: read-out: DIZ.
For test [13], the system named is Escherichia coli. Put plainly: Antibacterial activity against Escherichia coli ATCC 25922 after 18 to 24 hr by broth microdilution method.
The test system of test [14] is Bacillus cereus. Put plainly: Antibacterial activity against Bacillus cereus ATCC 11778 at 140 ug/disk after 18 to 24 hr by disk diffusion method. The settings on record: read-out: DIZ.
Test [15] concerns Staphylococcus epidermidis. In words: Antibacterial activity against Staphylococcus epidermidis ATCC 12228 after 18 to 24 hr by broth microdilution method.
Test [16] has as its system Candida albicans. In words: Antifungal activity against Candida albicans ATCC 90028 after 18 to 24 hr by broth microdilution method.
The subject of test [17] is Pseudomonas aeruginosa. In words: Antibacterial activity against Pseudomonas aeruginosa ATCC 27853 after 18 to 24 hr by broth microdilution method.
The test system of test [18] is Bacillus cereus. In words: Antibacterial activity against Bacillus cereus ATCC 11778 after 18 to 24 hr by broth microdilution method.
The subject of test [19] is Pseudomonas fluorescens. Put plainly: Antibacterial activity against Pseudomonas fluorescens ATCC 49838 after 18 to 24 hr by broth microdilution method.
Test [20] deals with Staphylococcus aureus. Put plainly: Antibacterial activity against Staphylococcus aureus ATCC 25923 at 140 ug/disc after 18 to 24 hr by disk diffusion method. The settings on record: read-out: DIZ.
The subject of test [21] is Klebsiella aerogenes. In words: Antibacterial activity against Enterobacter aerogenes ATCC 13048 at 140 ug/disk after 18 to 24 hr by disk diffusion method. To be noted: read-out: DIZ.
Test [22] concerns Staphylococcus aureus. Put plainly: Antibacterial activity against Staphylococcus aureus ATCC 25923 after 18 to 24 hr by broth microdilution method.

Converted amounts (≈) assume the structure as drawn.

In general, MIC refers to the least concentration at which growth counts as inhibited. Read a low MIC as a more susceptible organism. Turning to `CN(N)S(=O)(=O)c1ccccc1`, the zone of inhibition at 140 µg/disc in test [1] was found to be 22 mm; in test [2] it was 16 mm; in test [3] it was 17 mm; in [4], 14 mm; in test [8], 15 mm; in [9] it was 0 mm. Further, the zone of inhibition at 140 µg/disc stood at 19 mm in [10]; 18 mm in test [12]; 15 mm in [14]; 19 mm in test [20]; 16 mm in test [21]. The MIC is 250 µg/mL (≈ 1340 µM) in [5]; 125 µg/mL (≈ 671 µM) in test [6]; 125 µg/mL (≈ 671 µM) in test [7]; 125 µg/mL (≈ 671 µM) in test [11]; 125 µg/mL (≈ 671 µM) in [13]; 125 µg/mL (≈ 671 µM) in test [15]. The MIC in [16] was above 2000 µg/mL; in [17] it was 62.5 µg/mL (≈ 336 µM); in [18], 125 µg/mL (≈ 671 µM); in test [19], 62.5 µg/mL (≈ 336 µM); in test [22], 125 µg/mL (≈ 671 µM).

As to `NCC(O)CNS(=O)(=O)c1ccccc1` (configuration not stated), the zone of inhibition at 140 µg/disc in test [1], in test [2], in test [3], in test [4], in test [8] and in [9] was 0 mm each time. Further, the zone of inhibition at 140 µg/disc in test [10], in [12], in [14], in [20] and in [21] was 0 mm in each case. Besides, the MIC in test [5] was above 2000 µg/mL; in test [6], above 2000 µg/mL; in [7], above 2000 µg/mL; in test [11] it was 1000 µg/mL (≈ 4340 µM); in test [13], 1000 µg/mL (≈ 4340 µM); in test [15], above 2000 µg/mL. Besides, the MIC was 1000 µg/mL (≈ 4340 µM) in test [16]; 1000 µg/mL (≈ 4340 µM) in test [17]; above 2000 µg/mL in test [18]; 1000 µg/mL (≈ 4340 µM) in test [19]; above 2000 µg/mL in test [22].

Turning to `C/C(=N\N(C)S(=O)(=O)c1ccccc1)c1ccccc1O`, the zone of inhibition at 140 µg/disc turned out to be 11 mm in test [1]; 9 mm in test [2]; 6 mm in [3]; 12 mm in [4]; 9 mm in test [8]; 12 mm in [9]. For the same compound, the zone of inhibition at 140 µg/disc worked out at 5 mm in test [10]; 11 mm in test [12]; 10 mm in test [14]; 10 mm in test [20]; 5 mm in test [21]. The MIC in test [5] was 1000 µg/mL (≈ 3290 µM); in test [6] it was 1000 µg/mL (≈ 3290 µM); in [7], 500 µg/mL (≈ 1640 µM); in [11], 1000 µg/mL (≈ 3290 µM); in test [13], 1000 µg/mL (≈ 3290 µM); in test [15], 500 µg/mL (≈ 1640 µM). For the same compound, the MIC in [16] stood at 500 µg/mL (≈ 1640 µM); in test [17], 1000 µg/mL (≈ 3290 µM); in test [18], 500 µg/mL (≈ 1640 µM); in test [19], 1000 µg/mL (≈ 3290 µM); in [22] it was 500 µg/mL (≈ 1640 µM).

Turning to `O=S(=O)(NCCO)c1ccccc1`, the zone of inhibition at 140 µg/disc in test [1], in test [2], in [3], in test [4], in [8] and in test [9] was 0 mm throughout. In addition, the zone of inhibition at 140 µg/disc in [10], in test [12], in test [14], in test [20] and in test [21] was 0 mm each time. The MIC in [5] was above 2000 µg/mL; in [6], 1000 µg/mL (≈ 4970 µM); in test [7] it was 1000 µg/mL (≈ 4970 µM); in test [11], 1000 µg/mL (≈ 4970 µM); in test [13], 1000 µg/mL (≈ 4970 µM); in test [15], above 2000 µg/mL. Besides, the MIC is 1000 µg/mL (≈ 4970 µM) in [16]; 1000 µg/mL (≈ 4970 µM) in [17]; above 2000 µg/mL in test [18]; 1000 µg/mL (≈ 4970 µM) in [19]; above 2000 µg/mL in test [22].

As to `CN(/N=C/c1cccs1)S(=O)(=O)c1ccccc1`, the zone of inhibition at 140 µg/disc was found to be 25 mm in test [1]; 24 mm in test [2]; 21 mm in test [3]; 15 mm in test [4]; 0 mm in [8]; 0 mm in test [9]. For the same compound, the zone of inhibition at 140 µg/disc in test [10] is 24 mm; in [12], 17 mm; in [14], 25 mm; in test [20], 12 mm; in [21], 17 mm. The MIC was found to be 1000 µg/mL (≈ 3570 µM) in test [5]; 125 µg/mL (≈ 446 µM) in test [6]; 125 µg/mL (≈ 446 µM) in test [7]; 250 µg/mL (≈ 892 µM) in test [11]; 125 µg/mL (≈ 446 µM) in test [13]; 125 µg/mL (≈ 446 µM) in test [15]. For the same compound, the MIC amounted to 1000 µg/mL (≈ 3570 µM) in [16]; 125 µg/mL (≈ 446 µM) in test [17]; 250 µg/mL (≈ 892 µM) in [18]; 125 µg/mL (≈ 446 µM) in [19]; 250 µg/mL (≈ 892 µM) in [22].

With `CN(/N=C/c1c(O)ccc2ccccc12)S(=O)(=O)c1ccccc1`, the zone of inhibition at 140 µg/disc in test [1] was 26 mm; in test [2], 28 mm; in test [3], 23 mm; in test [4], 16 mm; in test [8], 17 mm; in [9] it was 16 mm. The zone of inhibition at 140 µg/disc in test [10] came to 25 mm; in [12] it was 17 mm; in test [14], 26 mm; in test [20], 19 mm; in [21], 18 mm. In addition, the MIC in test [5] is 500 µg/mL (≈ 1470 µM); in test [6], 250 µg/mL (≈ 734 µM); in test [7], 250 µg/mL (≈ 734 µM); in [11], 500 µg/mL (≈ 1470 µM); in test [13] it was 500 µg/mL (≈ 1470 µM); in test [15], 500 µg/mL (≈ 1470 µM). Besides, the MIC in test [16] is 500 µg/mL (≈ 1470 µM); in [17] it was 250 µg/mL (≈ 734 µM); in test [18], 250 µg/mL (≈ 734 µM); in [19], 250 µg/mL (≈ 734 µM); in test [22], 500 µg/mL (≈ 1470 µM).
